Series [1] in a line: pH-potentiometric titration, stability constants (logβ) of ML complexes. As to conditions: [(η^5-Cp*)Rh]^2+; 0.20 M KCl, 25.0°C. It counts as physicochemical. The source says: […]. […] Comparing the two metal ion containing systems, the complexation with [(η^6-p-cym)Ru]^2+, starts at a more acidic pH, but hydrolytic processes occur already in the physiological pH range due to the higher affinity of the metal ion to hydrolysis. For the [(η^5-Cp*)Rh]^2+, these processes are shifted towards higher pH; […].
For solution studies, doubly deionized and ultra-filtered water was obtained from a Milli-Q RG (Millipore) water purification system. pH-potentiometric measurements were carried out at a constant ionic strength of 0.20 M KCl and at 25.0°C. Carbonate-free KOH solutions of known concentrations (ca. 0.2 M) were used as titrant. […]. A Mettler Toledo DL50 titrator equipped with a DG114-SC combined glass electrode was used for the pH-potentiometric measurements. […] The titrations were performed in the pH range of 2.0–11.0 in equilibrium-controlled mode, during which the pH equilibrium was assumed to be reached if a change in the measured potential was less than 0.1 mV within 90 s. […] The protonation constants of the ligands and the overall stability constants of the complexes, βp,q,r = [MpHqLr]/[M]^p[H]^q[L]^r (where “M” stands for [(η^5-Cp*)Rh(H2O)3]^2+ and “L” represents the completely deprotonated form of the ligand), were calculated with the aid of the SUPERQUAD ([Gans et al., 1985]) and PSEQUAD ([Zékány and Nagypál, 1985]) computer programs, respectively. […]

Series [2] is described as follows: pH-potentiometric titration, protonation constants (pKa) of the ligands. It counts as physicochemical. The following applies: 0.20 M KCl, 25.0°C; N-heterocyclic ring of the ligand. The protocol:
In order to obtain information on the acidbase character of the ligands and on the stoichiometry and stability of the complexes present in aqueous medium, potentiometric titrations were carried out in selected systems. Based on the results, both 3a and 3b, having good enough solubility in water, are capable of releasing one hydrogen ion from the fully protonated forms in the measurable pH range (see Figure 3, “pK”). The calculated pK a values appear in Table 4; these values belong to the N-heterocyclic ring of the ligands. […]. For comparison, the previously prepared β-anomeric pair of 3a, compound 3a-β ([Kacsir et al., 2021]) in Table 4, was also studied.
For solution studies, doubly deionized and ultra-filtered water was obtained from a Milli-Q RG (Millipore) water purification system. pH-potentiometric measurements were carried out at a constant ionic strength of 0.20 M KCl and at 25.0°C. Carbonate-free KOH solutions of known concentrations (ca. 0.2 M) were used as titrant. […]. A Mettler Toledo DL50 titrator equipped with a DG114-SC combined glass electrode was used for the pH-potentiometric measurements. […] The titrations were performed in the pH range of 2.0–11.0 in equilibrium-controlled mode, during which the pH equilibrium was assumed to be reached if a change in the measured potential was less than 0.1 mV within 90 s. […]

As to `OC[C@H]1O[C@H](n2cc(-c3ccccn3)nn2)[C@H](O)[C@@H](O)[C@@H]1O` [Complex 3a, 1-(α-D-Glucopyranosyl)-4-(pyridin-2-yl)-1,2,3-triazole], the “logβ [ML]” value in series [1] was 5.50 (4). Besides, the pK a in series [2] was 3.59 (1).

(Values after paper PMC12434071, “Platinum-group metal half-sandwich complexes of 1-(α-D-glucopyranosyl)-4-hetaryl-1,2,3-triazoles: synthesis, solution equilibrium studies, and investigation of their anticancer and antimicrobial activities” (Frontiers in Chemistry, 2025).)
